Experimental data reported in publication PMC8286840, “Identifying SARS-CoV-2 antiviral compounds by screening for small molecule inhibitors of Nsp3 papain-like protease” (Biochemical Journal, 2021).
Where a name gives a salt, the structure may show the parent alone. Read-outs that look alike come from different tables or passages of the source. Where a SMILES comes first, the peptide text is derived from it. [ ]: non-standard residue; d: D form. The star is where a group is joined. Hexanoyl = CCCCCC(=O)*; Ahx = NCCCCCC(=O)O

Columns and labels:
[1] = target: T1, SARS-CoV-2 PLpro (nsp3 1564–1878) (Severe acute respiratory syndrome coronavirus 2, UniProt P0DTD1); assay: biochemical; design: FRET-quenched peptide (Pro3) cleavage by PLpro, 10 min pre-incubation, slope over 20 min, normalised to no-compound control; conditions: low concentration screen, read-out: % of control remaining
[2] = target: T1, SARS-CoV-2 PLpro (nsp3 1564–1878); assay: biochemical; design: FRET-quenched peptide (Pro3) cleavage by PLpro, 10 min pre-incubation, slope over 20 min, normalised to no-compound control; conditions: high concentration screen, read-out: % of control remaining

C[C@H]1O[C@@H](O[C@H]2[C@@H](O)C[C@H](O[C@H]3[C@@H](O)C[C@H](O[C@H]4CC[C@@]5(C)[C@H](CC[C@@H]6[C@@H]5CC[C@]5(C)[C@@H](C7=CC(=O)OC7)CC[C@]65O)C4)O[C@@H]3C)O[C@@H]2C)C[C@H](O)[C@@H]1O [Digitoxin]
remaining activity at 1.25 µM ([1]; Well no.=3463): 104%
remaining activity at 3.75 µM ([2]; Well no.=3463): 105%

CCCCCC(=O)N[C@@H](Cc1ccc(O)cc1)C(=O)N[C@H](C(=O)NCCCCCC(N)=O)[C@@H](C)CC [Dihexa] (Hexanoyl-Tyr-Ile-[Ahx]-NH2)
remaining activity at 1.25 µM ([1]; Well no.=8646): 98.6%
remaining activity at 3.75 µM ([2]; Well no.=8646): 98.4%

CCCCC/C=C\C/C=C\C/C=C\CCCCCCC(=O)O [Dihomo-γ-linolenic acid]
remaining activity at 1.25 µM ([1]; Well no.=4317): 99%
remaining activity at 3.75 µM ([2]; Well no.=4317): 99.1%

CO[C@H]1CC=C2CCN3CCC4=C(CC(=O)OC4)[C@]23C1 [Dihydro-beta-erythroidine hydrobromide]
remaining activity at 1.25 µM ([1]; Well no.=690): 88.8%
remaining activity at 3.75 µM ([2]; Well no.=690): 88.6%

CC(C)[C@@]1(NC(=O)[C@@H]2C[C@@H]3c4cccc5[nH]cc(c45)C[C@H]3N(C)C2)O[C@@]2(O)[C@@H]3CCCN3C(=O)[C@H](Cc3ccccc3)N2C1=O [Dihydroergocristine mesylate]
remaining activity at 1.25 µM ([1]; Well no.=3231): 108%
remaining activity at 3.75 µM ([2]; Well no.=3231): 105%

CC(C)[C@@]1(NC(=O)[C@@H]2C[C@@H]3c4cccc5[nH]cc(c45)C[C@H]3N(C)C2)O[C@@]2(O)[C@@H]3CCCN3C(=O)[C@H](Cc3ccccc3)N2C1=O [Dihydroergocristine methanesulfonate]
remaining activity at 1.25 µM ([1]; Well no.=404): 102%
remaining activity at 3.75 µM ([2]; Well no.=404): 101%

CC(C)[C@@]1(NC(=O)[C@@H]2C[C@@H]3c4cccc5[nH]cc(c45)C[C@H]3N(C)C2)O[C@@]2(O)[C@@H]3CCCN3C(=O)[C@H](Cc3ccccc3)N2C1=O [Dihydroergocristine]
remaining activity at 1.25 µM ([1]; Well no.=2098): 104%
remaining activity at 3.75 µM ([2]; Well no.=2098): 102%

CN1C[C@H](C(=O)N[C@]2(C)O[C@@]3(O)[C@@H]4CCCN4C(=O)[C@H](Cc4ccccc4)N3C2=O)C[C@@H]2c3cccc4[nH]cc(c34)C[C@H]21 [Dihydroergotamine (mesylate)]
remaining activity at 1.25 µM ([1]; Well no.=6947): 92.6%
remaining activity at 3.75 µM ([2]; Well no.=6947): 92.7%

CN1C[C@H](C(=O)N[C@]2(C)O[C@@]3(O)[C@@H]4CCCN4C(=O)[C@H](Cc4ccccc4)N3C2=O)C[C@@H]2c3cccc4[nH]cc(c34)C[C@H]21 [Dihydroergotamine mesylate]
remaining activity at 1.25 µM ([1]; Well no.=1701): 98.4%
remaining activity at 3.75 µM ([2]; Well no.=1701): 98.9%

CN1C[C@H](C(=O)N[C@]2(C)O[C@@]3(O)[C@@H]4CCCN4C(=O)[C@H](Cc4ccccc4)N3C2=O)C[C@@H]2c3cccc4[nH]cc(c34)C[C@H]21 [Dihydroergotamine methanesulfonate]
remaining activity at 1.25 µM ([1]; Well no.=543): 102%
remaining activity at 3.75 µM ([2]; Well no.=543): 104%

CC(C)[C@H]1CN[C@H](C(=O)O)[C@H]1CC(=O)O [Dihydrokainic acid]
remaining activity at 1.25 µM ([1]; Well no.=635): 93.4%
remaining activity at 3.75 µM ([2]; Well no.=635): 94%

COC1=CC(=O)O[C@@H](CCc2ccc3c(c2)OCO3)C1 [Dihydromethysticin]
remaining activity at 1.25 µM ([1]; Well no.=3303): 100%
remaining activity at 3.75 µM ([2]; Well no.=3303): 102%

C[C@@H]1O[C@@H](O[C@H]2C[C@@H](O)[C@]3(CO)[C@H]4[C@H](O)C[C@]5(C)[C@@H](C6COC(=O)C6)CC[C@]5(O)[C@@H]4CC[C@]3(O)C2)[C@H](O)[C@H](O)[C@H]1O (stereo partly shown) [Dihydroouabain]
remaining activity at 1.25 µM ([1]; Well no.=539): 91.5%
remaining activity at 3.75 µM ([2]; Well no.=539): 93.8%

CCCCCCCCCCCCCCC[C@@H](O)[C@@H](N)CO [Dihydrosphingosine]
remaining activity at 1.25 µM ([1]; Well no.=4399): 101%
remaining activity at 3.75 µM ([2]; Well no.=4399): 96.6%

CC1CNC(=O)NC1=O (stereo not shown) [Dihydrothymine]
remaining activity at 1.25 µM ([1]; Well no.=8392): 100%
remaining activity at 3.75 µM ([2]; Well no.=8392): 92.8%

c1ccc2c(Cc3c[nH]c4ccccc34)c[nH]c2c1 [Diindolylmethane]
remaining activity at 1.25 µM ([1]; Well no.=3516): 102%
remaining activity at 1.25 µM ([1]; Well no.=4509): 88.9%
remaining activity at 3.75 µM ([2]; Well no.=3516): 104%
remaining activity at 3.75 µM ([2]; Well no.=4509): 92.4%

COc1cc(C(=O)OCCCN2CCCN(CCCOC(=O)c3cc(OC)c(OC)c(OC)c3)CC2)cc(OC)c1OC [Dilazep hydrochloride]
remaining activity at 1.25 µM ([1]; Well no.=595): 103%
remaining activity at 3.75 µM ([2]; Well no.=595): 106%

COc1cc(C(=O)OCCCN2CCCN(CCCOC(=O)c3cc(OC)c(OC)c(OC)c3)CC2)cc(OC)c1OC [Dilazep]
remaining activity at 1.25 µM ([1]; Well no.=1931): 100%
remaining activity at 3.75 µM ([2]; Well no.=1931): 99.9%

COc1ccc([C@@H]2Sc3ccccc3N(CCN(C)C)C(=O)[C@@H]2OC(C)=O)cc1 [Diltiazem]
remaining activity at 1.25 µM ([1]; Well no.=1713): 104%
remaining activity at 3.75 µM ([2]; Well no.=1713): 102%

Cc1ccc2c(c1)[C@]13CCCC[C@@H]1[C@H](C2)N(C)CC3 [Dimemorfan (phosphate)]
remaining activity at 1.25 µM ([1]; Well no.=8523): 106%
remaining activity at 3.75 µM ([2]; Well no.=8523): 103%

O=S(=O)(O)CCSSCCS(=O)(=O)O [Dimesna]
remaining activity at 1.25 µM ([1]; Well no.=5105): 104%
remaining activity at 3.75 µM ([2]; Well no.=5105): 105%

COC(=O)/C=C/C(=O)OC [Dimethyl Fumarate]
remaining activity at 1.25 µM ([1]; Well no.=5294): 93.6%
remaining activity at 3.75 µM ([2]; Well no.=5294): 94.2%

CCc1cnn2c(NCc3ccc[n+]([O-])c3)cc(N3CCCC[C@H]3CCO)nc12 [Dinaciclib (SCH727965)]
remaining activity at 1.25 µM ([1]; Well no.=5081): 99.7%
remaining activity at 3.75 µM ([2]; Well no.=5081): 105%

CCCCC[C@H](O)/C=C/[C@@H]1[C@@H](C/C=C\CCCC(=O)O)[C@@H](O)C[C@H]1O [Dinoprost (tromethamine salt)]
remaining activity at 1.25 µM ([1]; Well no.=6475): 104%
remaining activity at 3.75 µM ([2]; Well no.=6475): 105%

CCCCC[C@H](O)/C=C/[C@@H]1[C@@H](C/C=C\CCCC(=O)O)[C@@H](O)C[C@H]1O [Dinoprost]
remaining activity at 1.25 µM ([1]; Well no.=1667): 99.9%
remaining activity at 3.75 µM ([2]; Well no.=1667): 101%

C[C@@H]1CC[C@@]2(OC1)O[C@H]1C[C@H]3[C@@H]4CC=C5C[C@@H](O)CC[C@]5(C)[C@H]4CC[C@]3(C)[C@H]1[C@@H]2C [Diosgenin]
remaining activity at 1.25 µM ([1]; Well no.=5192): 96.6%
remaining activity at 3.75 µM ([2]; Well no.=5192): 94.9%

COc1ccc(-c2cc(=O)c3c(O)cc(O)cc3o2)cc1O [Diosmetine]
remaining activity at 1.25 µM ([1]; Well no.=3573): 97.4%
remaining activity at 3.75 µM ([2]; Well no.=3573): 97.7%

COc1ccc(-c2cc(=O)c3c(O)cc(O[C@@H]4O[C@H](CO[C@@H]5O[C@@H](C)[C@H](O)[C@@H](O)[C@H]5O)[C@@H](O)[C@H](O)[C@H]4O)cc3o2)cc1O [Diosmin]
remaining activity at 1.25 µM ([1]; Well no.=3597): 95.3%
remaining activity at 3.75 µM ([2]; Well no.=3597): 97.4%

C[N+]1(C)CCC(=C(c2ccccc2)c2ccccc2)CC1 [Diphemanil Methylsulfate]
remaining activity at 1.25 µM ([1]; Well no.=5118): 109%
remaining activity at 3.75 µM ([2]; Well no.=5118): 108%

OC(CCCN1CCCCC1)(c1ccccc1)c1ccccc1 [Diphenidol (hydrochloride)]
remaining activity at 1.25 µM ([1]; Well no.=7621): 102%
remaining activity at 3.75 µM ([2]; Well no.=7621): 102%

Cc1cc(-c2ccc(N=Nc3c(S(=O)(=O)O)cc4cc(S(=O)(=O)O)cc(N)c4c3O)c(C)c2)ccc1N=Nc1c(S(=O)(=O)O)cc2cc(S(=O)(=O)O)cc(N)c2c1O [Diphenyl Blue]
remaining activity at 1.25 µM ([1]; Well no.=7598): 89.8%
remaining activity at 3.75 µM ([2]; Well no.=7598): 89.2%
